Reference: patent publication US8067461B2, “3-acyl coumarins, thiochromones and quinolones and therapeutic uses thereof” (Temple University-Of The Commonwealth System of Higher …, priority 2005, dated 2011)
Read-outs that look alike come from different tables or passages of the source.

Tests used:
[1] = target: T1, CDK9/CyclinT1 (Homo sapiens, UniProt P50750); experiment: In vitro kinase assay CDK9/CyclinT1, 32P incorporation into RNA Polymerase II carboxy terminal domain; format: biochemical; settings: recombinant human enzyme complex, average of two independent experiments in triplicate
T1 construct: purchased Upstate USA, Charlottesville, Va

[2] = test system: DU145 Cells; experiment: Cytotoxicity on DU145 tumor cells, viable cells by Trypan blue exclusion; format: cell-based, human; settings: DU145 prostate cell line, 96 h continuous treatment, five concentrations (1-100 μM range)
Description: The effect of compounds according to Formula I on the growth of human tumor cells in culture was evaluated using the androgen receptor negative prostate cell line DU145. All cell cultures were maintained at 37° C. in a humidified atmosphere of 5% CO2.
Cells were treated with compounds according to Formula I at five different concentrations (1-100 μM range) for each compound. The dose response of each cell line was established by determining the number of viable cells after 96 h of continuous treatment against each of the different test concentrations of each compound. The determination of viable cells was done by the by the Trypan blue exclusion method. An IC50 (μM) for each compound was determined.

[3] = target: CDK4/CyclinD1 (Homo sapiens, UniProt P11802); experiment: In vitro kinase assay CDK4/CyclinD1, 32P incorporation into GST-Rb
[4] = target: T2, CDK1/CyclinB (Homo sapiens, UniProt P06493); experiment: In vitro kinase assay CDK1/CyclinB, 32P incorporation into Histone H1; format: biochemical; settings: recombinant human enzyme complex, average of two independent experiments in triplicate
T2 construct: purchased Upstate USA, Charlottesville, Va

[5] = target: T3, CDK2/CylinE (Homo sapiens, UniProt P24941); experiment: In vitro kinase assay CDK2/CylinE, 32P incorporation into Histone H1; format: biochemical; settings: recombinant human enzyme complex, average of two independent experiments in triplicate
T3 construct: purchased Upstate USA, Charlottesville, Va

T2 sequence (P06493 whole entry): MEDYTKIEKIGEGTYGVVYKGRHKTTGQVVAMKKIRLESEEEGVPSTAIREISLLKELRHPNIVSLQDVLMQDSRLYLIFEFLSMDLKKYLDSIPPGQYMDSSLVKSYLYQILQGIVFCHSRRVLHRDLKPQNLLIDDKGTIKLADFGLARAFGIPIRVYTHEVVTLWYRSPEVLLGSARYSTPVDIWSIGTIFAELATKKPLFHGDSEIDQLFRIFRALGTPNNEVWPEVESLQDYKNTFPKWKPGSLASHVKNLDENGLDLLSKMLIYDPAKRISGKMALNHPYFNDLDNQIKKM
T2 sequence (P14635 whole entry partner): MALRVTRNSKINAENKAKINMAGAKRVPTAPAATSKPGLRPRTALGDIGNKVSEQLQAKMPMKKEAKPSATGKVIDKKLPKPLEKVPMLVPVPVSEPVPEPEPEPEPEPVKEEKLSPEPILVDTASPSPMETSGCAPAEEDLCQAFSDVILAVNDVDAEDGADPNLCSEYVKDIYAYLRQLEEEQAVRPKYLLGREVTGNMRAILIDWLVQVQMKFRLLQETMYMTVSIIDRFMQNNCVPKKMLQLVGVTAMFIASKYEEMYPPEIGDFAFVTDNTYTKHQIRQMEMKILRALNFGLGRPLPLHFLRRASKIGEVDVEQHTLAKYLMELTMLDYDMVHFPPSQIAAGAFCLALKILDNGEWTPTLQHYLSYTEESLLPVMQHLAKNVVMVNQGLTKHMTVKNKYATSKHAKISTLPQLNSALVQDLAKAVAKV
CDK4/CyclinD1, sequence (P11802 whole entry): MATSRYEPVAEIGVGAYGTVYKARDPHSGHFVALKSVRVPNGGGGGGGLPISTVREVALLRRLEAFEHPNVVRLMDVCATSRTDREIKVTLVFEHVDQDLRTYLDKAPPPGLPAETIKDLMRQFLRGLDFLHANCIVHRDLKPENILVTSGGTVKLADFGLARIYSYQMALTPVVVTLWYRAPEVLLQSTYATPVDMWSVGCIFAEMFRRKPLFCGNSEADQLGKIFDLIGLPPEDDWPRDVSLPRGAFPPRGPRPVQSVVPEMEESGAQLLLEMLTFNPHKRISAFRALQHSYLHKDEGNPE
CDK4/CyclinD1, sequence (P24385 whole entry partner): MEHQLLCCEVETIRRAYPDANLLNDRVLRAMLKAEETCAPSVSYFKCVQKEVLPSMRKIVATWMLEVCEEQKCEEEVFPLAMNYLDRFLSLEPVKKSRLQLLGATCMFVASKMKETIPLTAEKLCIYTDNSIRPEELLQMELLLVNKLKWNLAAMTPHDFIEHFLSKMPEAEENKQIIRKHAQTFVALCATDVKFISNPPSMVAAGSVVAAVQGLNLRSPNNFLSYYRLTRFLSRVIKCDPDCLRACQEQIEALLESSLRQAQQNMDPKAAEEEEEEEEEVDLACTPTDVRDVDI
T1 sequence (P50750 whole entry, the tested form may be a part): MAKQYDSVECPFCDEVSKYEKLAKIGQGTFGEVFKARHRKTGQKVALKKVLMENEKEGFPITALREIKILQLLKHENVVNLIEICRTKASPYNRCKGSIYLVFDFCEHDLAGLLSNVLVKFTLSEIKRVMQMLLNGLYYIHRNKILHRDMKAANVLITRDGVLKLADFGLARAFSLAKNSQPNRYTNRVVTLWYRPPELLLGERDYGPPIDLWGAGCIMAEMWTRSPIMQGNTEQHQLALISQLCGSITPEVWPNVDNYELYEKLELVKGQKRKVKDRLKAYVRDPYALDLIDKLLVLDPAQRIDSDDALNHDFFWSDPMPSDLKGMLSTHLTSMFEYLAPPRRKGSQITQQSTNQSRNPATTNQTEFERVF
T1 sequence (O60563 whole entry partner, the tested form may be a part): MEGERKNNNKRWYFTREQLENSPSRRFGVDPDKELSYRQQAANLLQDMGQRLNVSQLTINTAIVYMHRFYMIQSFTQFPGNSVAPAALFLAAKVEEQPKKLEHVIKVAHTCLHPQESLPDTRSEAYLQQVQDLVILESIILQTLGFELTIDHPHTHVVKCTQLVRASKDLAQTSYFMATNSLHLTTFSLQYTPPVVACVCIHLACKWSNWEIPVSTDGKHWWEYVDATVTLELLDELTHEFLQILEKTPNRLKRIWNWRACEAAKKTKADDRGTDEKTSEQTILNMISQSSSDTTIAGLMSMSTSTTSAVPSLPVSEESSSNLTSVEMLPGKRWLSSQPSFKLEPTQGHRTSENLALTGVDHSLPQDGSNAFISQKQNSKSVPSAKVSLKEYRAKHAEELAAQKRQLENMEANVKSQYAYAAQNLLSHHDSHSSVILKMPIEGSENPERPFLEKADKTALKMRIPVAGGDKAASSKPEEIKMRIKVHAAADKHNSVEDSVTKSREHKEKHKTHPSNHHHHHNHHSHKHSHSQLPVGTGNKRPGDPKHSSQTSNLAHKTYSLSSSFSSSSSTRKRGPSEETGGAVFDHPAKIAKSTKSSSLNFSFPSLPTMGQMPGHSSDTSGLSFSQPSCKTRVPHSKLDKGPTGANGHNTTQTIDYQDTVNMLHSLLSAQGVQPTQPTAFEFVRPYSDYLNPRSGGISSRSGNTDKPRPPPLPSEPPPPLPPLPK

Compound | IC50 [1] [µM] | IC50 [3] [µM] | IC50 [4] [µM] | IC50 [5] [µM] | IC50 ([2]; Homo sapiens, DU-145) [µM] | IC50 [2] [µM] | IC50 ([3]; read-out: CDK4 IC50, recombinant human enzyme complex, average of two independent experiments in triplicate) [µM]
COc1cc([N+](=O)[O-])cc2cc(C(=O)c3cc4cc([N+](=O)[O-])cc(OC)c4oc3=O)c(=O)oc12 [Example 10, 8-methoxy-3-[(8-methoxy-6-nitro-2-oxo-chromen-3-yl)carbonyl]-6-nitro-chromen-2-one] | 0.5 | > 10 | > 10 | 0.549 | 10 to 25 |  | 
O=C(c1cc2cc(F)ccc2oc1=O)c1cc2cc(F)ccc2oc1=O [Example 7, 6-fluoro-3-[(6-fluoro-2-oxochromen-3-yl)carbonyl]chromen-2-one] |  | > 10 | > 10 |  | > 100 |  | 
O=C(c1cc2cccc([N+](=O)[O-])c2oc1=O)c1cc2cccc([N+](=O)[O-])c2oc1=O [Example 24, 8-nitro-3-[(8-nitro-2-oxo-chromen-3-yl)carbonyl]chromen-2-one] |  | > 10 | > 10 |  |  |  | 
COc1ccc(Br)c2cc(C(=O)c3cc4c(Br)ccc(OC)c4oc3=O)c(=O)oc12 [Example 15, 5-bromo-8-methoxy-3-[(5-bromo-8-methoxy-2-oxochromen-3-yl)-carbonyl]chromen-2-one] |  | > 10 | > 10 |  | 25 to 50 |  | 
O=C(c1cc2cc(Br)ccc2oc1=O)c1cc2cc(Br)ccc2oc1=O [Example 1, 6-bromo-3-[(6-bromo-2-oxo-chromen-3-yl)carbonyl]chromen-2-one] |  | > 10 | > 10 |  | > 100 |  | 
O=C(c1cc2cc(O)ccc2oc1=O)c1cc2cc(O)ccc2oc1=O [Example 18, 6-hydroxy-3-[(6-hydroxy-2-oxochromen-3-yl)carbonyl]chromen-2-one] |  | > 10 | > 10 |  | > 100 |  | 
COc1ccc2cc(C(=O)c3cc4ccc(OC)cc4oc3=O)c(=O)oc2c1 [Example 2, 7-methoxy-3-[(7-methoxy-2-oxochromen-3-yl)carbonyl]chromen-2-one] |  | > 10 | > 10 |  | > 100 |  | 
CCOc1cccc2cc(C(=O)c3cc4cccc(OCC)c4oc3=O)c(=O)oc12 [Example 4, 8-ethoxy-3-[(8-ethoxy-2-oxochromen-3-yl)carbonyl]chromen-2-one] |  | > 10 | > 10 |  | > 100 |  | 
O=C(c1cc2cccc(F)c2oc1=O)c1cc2cccc(F)c2oc1=O [Example 26, 8-fluoro-3-[(8-fluoro-2-oxochromen-3-yl)carbonyl]chromen-2-one] |  | > 10 | > 10 |  |  |  | 
O=C(c1cc2cc(F)cc(F)c2oc1=O)c1cc2cc(F)cc(F)c2oc1=O [Example 14, 6,8-difluoro-3-[(6,8-difluoro-2-oxochromen-3-yl)carbonyl]chromen-2-one] |  | > 10 | > 10 |  | 10 to 25 |  | 
O=C(c1cc2cc(OC(F)(F)F)ccc2oc1=O)c1cc2cc(OC(F)(F)F)ccc2oc1=O [Example 23, 6-trifluoromethoxy-3-[(6-tri-fluoromethoxy-2-oxochromen-3-yl)-carbonyl]chromen-2-one] |  | > 10 | > 10 |  |  |  | 
O=C(c1cc2cc3ccccc3cc2oc1=O)c1cc2cc3ccccc3cc2oc1=O [Example 20, [(2-oxobenzo[g]chromen-3-yl)-carbonyl]benzo[g]chromen-2-one] |  |  | > 10 |  |  | 25 to 50 | > 10
COc1cc(OC)c2cc(C(=O)c3cc4c(OC)cc(OC)cc4oc3=O)c(=O)oc2c1 [Example 3, 5,7-dimethoxy-3-[(5,7-dimethoxy-2-oxochromen-3-yl)carbonyl]chromen-2-one] |  | > 10 | > 10 |  | > 100 |  | 
O=C(c1cc2cc(Cl)ccc2oc1=O)c1cc2cc(Cl)ccc2oc1=O [Example 6, 6-chloro-3-[(6-chloro-2-oxochromen-3-yl)carbonyl]chromen-2-one] |  | > 10 | 1 to 10 |  | > 100 |  | 
COc1cccc2oc(=O)c(C(=O)c3cc4c(OC)cccc4oc3=O)cc12 [Example 21, 5-methoxy-3-[(5-methoxy-2-oxochromen-3-yl)carbonyl]chromen-2-one] | 0.5 | > 10 | > 10 | 10 | 50 to 100 |  | 
O=C(c1cc2ccc(O)cc2oc1=O)c1cc2ccc(O)cc2oc1=O [Example 11, 7-hydroxy-3-[(7-hydroxy-2-oxo-chromen-3-yl)carbonyl]chromen-2-one] |  | > 10 | > 10 |  | > 100 |  | 

The next lines start with results.

IC50 [1] [µM] | IC50 [3] [µM] | IC50 [4] [µM] | IC50 [5] [µM] | Compound | IC50 ([2]; Homo sapiens, DU-145) [µM] | IC50 [2] [µM] | IC50 ([3]; read-out: CDK4 IC50, recombinant human enzyme complex, average of two independent experiments in triplicate) [µM]
0.5 | > 10 | 1 to 10 | 0.089 | O=C(c1cc2cc(Cl)cc(Br)c2oc1=O)c1cc2cc(Cl)cc(Br)c2oc1=O [Example 19, 6-chloro-8-bromo-3-[(6-chloro-8-bromo-2-oxochromen-3-yl)carbonyl]-chromen-2-one] | 1 to 10 |  | 
 | > 10 | > 10 |  | COc1cc(Br)cc2cc(C(=O)c3cc4cc(Br)cc(OC)c4oc3=O)c(=O)oc12 [Example 16, 6-bromo-8-methoxy-3-[(6-bromo-8-methoxy-2-oxochromen-3-yl)-carbonyl]chromen-2-one] | 50 to 100 |  | 
 | > 10 | 1 to 10 |  | Cc1ccc2oc(=O)c(C(=O)c3cc4cc(C)ccc4oc3=O)cc2c1 [Example 22, 6-methyl-3-[(6-methyl-2-oxochromen-3-yl)carbonyl]chromen-2-one] |  |  | 
 | 2.5 to 5 | > 10 |  | O=C(c1cc2cc(Cl)cc(Cl)c2oc1=O)c1cc2cc(Cl)cc(Cl)c2oc1=O [Example 12, 6,8-dichloro-3-[(6,8-dichloro-2-oxochromen-3-yl)carbonyl]chromen-2-one] | 10 to 25 |  | 
0.5 | > 10 | > 10 | 1.54 | O=C(c1cc2cc([N+](=O)[O-])ccc2oc1=O)c1cc2cc([N+](=O)[O-])ccc2oc1=O [Example 9, 6-nitro-3-[(6-nitro-2-oxochromen-3-yl)carbonyl]chromen-2-one] | 1 to 10 |  | 
 | > 10 | > 10 |  | O=C(c1cc2ccccc2oc1=O)c1cc2ccccc2oc1=O [Example 5] | > 100 |  | 
 | > 10 | > 10 |  | O=C(c1cc2cccc(O)c2oc1=O)c1cc2cccc(O)c2oc1=O [Example 17, 8-hydroxy-3-[(8-hydroxy-2-oxochromen-3-yl)carbonyl]chromen-2-one] | 25 to 50 |  | 
 | > 10 | > 10 |  | O=C(c1cc2cc(I)ccc2oc1=O)c1cc2cc(I)ccc2oc1=O [Example 8, 6-iodo-3-[(6-iodo-2-oxochromen-3-yl)carbonyl]chromen-2-one] | > 100 |  | 
 | > 10 |  |  | O=C(c1cc2cc([N+](=O)[O-])cc(Br)c2oc1=O)c1cc2cc([N+](=O)[O-])cc(Br)c2oc1=O [Example 27, 6-nitro-8-bromo-3-[(6-nitro-8-bromo-2-oxocbromen-3-yl)carbonyl]-chromen-2-one] |  |  | 
 | 0.04 |  |  | O=C(c1cc2cc(I)cc(I)c2oc1=O)c1cc2cc(I)cc(I)c2oc1=O [Example 29, 6,8-diiodo-3-[(6,8-diiodo-2-oxochromen-3-yl)carbonyl]chromen-2-one] | 10 to 20 |  | 
0.5 | 2.5 to 5 |  | 10 | O=C(c1cc2cc(Br)cc(Br)c2oc1=O)c1cc2cc(Br)cc(Br)c2oc1=O [Example 13, 6,8-dibromo-3-[(6,8-dibromo-2-oxochromen-3-yl)carbonyl]chromen-2-one] | 10 to 25 |  | 
